Laboratory results from patent US5159085A, “2-anilino phenylacetic acid derivatives as inhibitors of PLA2 and lipoxygenase” (American Home Products Corporation, priority 1991, dated 1992).
pIC50: −log10 of the molar value. Where a name gives a salt, the structure may show the parent alone. Read-outs that look alike come from different tables or passages of the source.

Assays:
[1] = test system: LTB4 synthesis by rat glycogen-elicited polymorphonuclear leukocytes (lipoxygenase); assay: Inhibition of LTB4 synthesis by rat glycogen-elicited polymorphonuclear leukocytes (PMN); type: cell-based, rat (female Wistar); details: A 23187 and exogenous AA; for inhibition at 0.5 µM / inhibition at 10 µM: Leukocyte; for inhibition at 0.5 µM: negative value denotes potentiation
Excerpt: This is especially true with respect to 5,12-diHETE, which is also denoted as LTB4 [see Ford-Hitchinson, J. Roy. Soc. Med., 74, 831 (1981)]. Compounds which inhibit the PLA2 -mediated release of arachidonic acid thereby effectively prevent the oxidation of arachidonic acid to the various leukotriene products via the lipoxygenase cascade. Accordingly, the specificity of action of PLA2 inhibitors can be determined by the activity of test compounds in this assay, which measures the ability of compounds to inhibit the synthesis of LTB4 by rat glycogen-elicited polymorphonuclear leukocytes (PMN) in the presence of exogenous substrate.
(§1) The assay is carried out as follows:
(§2) Rat polymorphonuclear leukocytes (PMNs) are obtained from female Wistar rats (150-200 g) which receive an injection of 6% glycogen (10 ml i.p.). Rats are sacrificed 18-24 hours post injection by CO2 asphyxiation and the elicited cells are harvested by peritoneal lavage using physiological saline (0.9% NaCl). The exudate is centrifuged at 400×g for 10 minutes. The supernatant fluid is discarded and the cell pellet is resuspended to a concentration of 2.0×10^7 cells/ml in HBSS containing Ca^++ and Mg^++ and 10 μM L-cysteine.
(§3) To 1 ml aliquots of cell suspension, test drugs or vehicle are added, then preincubated at 37° C. for 10 minutes. A 23187 (1 μM), [^3 H]-AA (3.0 μCi/ml) and unlabeled AA (1 μM) are then added and the samples are further incubated for 10 minutes. The reaction is terminated by centrifugation and pelleting cells. Supernatants are then analyzed by HPLC analysis on a 15 cm×4.6 mm ID supelcosil LC-18 (Supelco)(3M) column, using a two solvent system at a flow rate of 1.4 ml total flow as follows:
Gradient: (system is equillibrated with Solvent A)
(§4) Percent solvent changes are accomplished in a linear fashion.
(§5) Injections: 150 μl of each supernatant is injected directly onto column and ^3 H arachidonic acid metabolites are monitored using an on-line radioactivity detector (Ramona, IN/US, Fairfield, NJ).
(§6) Standards: 10^4 -2.0×10^4 dpm of eicosanoids of interest are injected in 90 μl EtOH cocktail.
(§7) Co-chromatography with standard [^3 H] leukotriene B4 (LTB4) in medium of stimulated PMN exposed to drug is compared to that found in medium of stimulated cells exposed to no drug, generating percent inhibition.
(§8) Results are expressed as percent inhibition at a given compound dose or as an IC50 value.

[2] = test system: TxB2 synthesis (cyclooxygenase) by rat glycogen-elicited polymorphonuclear leukocytes; assay: Inhibition of TxB2 synthesis by rat glycogen-elicited PMN (cyclooxygenase); type: cell-based, rat (female Wistar); details: for inhibition at 0.5 µM / inhibition at 10 µM: Rattus norvegicus, Leukocyte; for inhibition at 0.5 µM: negative values denote potentiation of cyclooxygenase; for pIC50: rat PMN, read-out: IC50 (TxB2 synthesis)
Method: as §2, §3, §4, §5, §6, §7, §8
In this assay, the procedure of Example 19 is carried out as described. However, in order to determine cyclooxygenase activity, the samples are co-chromatographed with authentic reference [^3 H]-TxB2.
The results are calculated as in Example 19 and presented below: […]

[3] = biological target: T1, human platelet PLA2 (Homo sapiens, UniProt P14555); assay: In vitro isolated phospholipase A2 assay, human platelet PLA2 (arachidonic acid release from 3H-AA E. coli substrate); type: biochemical; details: human platelet; for inhibition at 10 µM: negative values denote potentiation, read-out: % Inhibition at 10 μM HP
T1 construct: Semipurified human platelet acid extract PLA2; from tissue; host or cells: human platelets (semipurified acid extract)
T1 sequence (P14555 21-144): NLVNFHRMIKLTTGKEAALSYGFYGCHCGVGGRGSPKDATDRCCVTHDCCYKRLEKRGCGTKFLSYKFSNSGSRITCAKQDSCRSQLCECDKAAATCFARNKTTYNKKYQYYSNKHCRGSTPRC

[4] = biological target: T2, human synovial fluid PLA2 (Homo sapiens, UniProt P14555); assay: In vitro isolated phospholipase A2 assay, human synovial fluid PLA2; type: biochemical; details: 10 μM; human synovial fluid; negative values denote potentiation; read-out: % Inhibition at 10 μM HSF
T2 construct: Purified human synovial fluid; from tissue; host or cells: human synovial fluid
T2 sequence (P14555 21-144): T1 sequence (P14555 21-144)
Method: The compounds of the invention are tested in an in vitro isolated phospholipase A2 assay to determine the ability of the test compounds to inhibit the release of arachidonic acid from an arachidonic acid-containing substrate by the action of phospholipase A2 enzyme from human and non-human sources.
This assay is carried out as follows:
Into a 15 mL polypropylene tube are added the following:
*pre-incubate at room temperature 30 min prior to substrate addition.
^5 Stock 10 mM prepared in dimethyl sulfoxide. Make 1:2 dilution with
dimethyl sulfoxide and add 1 μ L to 100 μL assay tube.
^6 Two human PLA2 enzymes are used:
b) Purified human synovial fluid.
Incubate the 100 μL reaction mixture for 10 minutes at 37° C. in a shaking water bath. The reaction is terminated by the addition of 2 mL tetrahydrofuran, followed by vortexing. NH2 columns (100 μg/mL--Analytichem International) are conditioned with 0.5 mL tetrahydrofuran followed by 0.5 mL tetrahydrofuran/water (2 mL:0.1 mL, v/v).
The sample is loaded onto the columns and slowly drawn through them. The hydrolyzed arachidonic acid retained in the columns is eluted therefrom with 1 mL tetrahydrofuran/glacial acetic acid (2%). The arachidonic acid is transferred to scintillation vials and quantitated by β-counting analysis. A "total counts" sample is prepared by pipetting 25 μL ^3 H-arachidonate E. coli directly into a scintillation vial to which is added 1 mL tetrahydrofuran. 10 mL aquasol (scintillation cocktail) is added to all samples. [formula]

[5] = test system: paw edema induced by exogenous PLA2 (snake, A. piscivorus piscivorus); assay: In vivo PLA2 murine paw edema assay; parameters: species or system mouse (male CD-1); details: for ED50 at +10 min: mouse; for change in vivo at 1 mg/kg: Mus musculus, ip, 0.5 h; for % Change in Edema 30 min / change in vivo at 1 mg/kg: 30 min
Method: The ability of the compounds of the invention to inhibit paw edema induced by the exogenous administration of PLA2 is measured in the in vivo PLA2 murine paw edema assay.
as §1
Non-fasted, male CD-1 mice (8 weeks old; 31-36 grams) are placed in plastic boxes in groups of six. The right hind paw volume is measured using mercury plethysmography (zero time). […] A solution of purified PLA2, from the diamond back cotton mouth snake (A. piscivorus piscivorus) is prepared in saline at a concentration of 6 μg/ml. Fifty (50) μl (0.3 μg) of this PLA2 solution is injected subcutaneously into the right hind paw with a plastic 1 ml plastic syringe (27 gauge, 1" needle). Paw volume of the injected paw is measured again at 10 minutes, 30 minutes and 60 minutes after PLA2 injection. Animals are euthanized with CO2 at the completion of the study.
The paw edema is calculated by subtracting the zero time volume from the volume recorded at each time period. Mean paw edema for each treatment group is then calculated and expressed as (μl±S.E.). Drug effects are expressed as a percent change from control (vehicle) values. Statistical significance is determined by a one-way analysis of variance with LSD comparison to control (p<0.05). ED50 's are determined using repression analysis.

Molecule	inhibition at 0.5 µM [1] [%]	inhibition at 0.5 µM [2] [%]	inhibition at 10 µM [4] [%]	% Change in Edema 10 min ([5]; 10 mg/kg i.p.)	% Change in Edema 30 min ([5]; 10 mg/kg i.p.) [%]	also measured
COC(=O)Cc1cc(OCc2ccc3ccc(Cl)cc3n2)ccc1Nc1c(Cl)cccc1Cl [Example 5, 5-[(7-Chloro-2-quinolyl)methoxy]-2-[(2,6-dichlorophenyl)amino]benzene acetic acid methyl ester]	56	0	-127	–	–	inhibition at 10 µM [1]: 95%; inhibition at 10 µM [2]: 27%; inhibition at 10 µM [3]: -5.3%
O=C(O)Cc1cc(OCc2ccc3ccccc3n2)ccc1Nc1c(Cl)cccc1Cl [Example 4, 2-[(2,6-Dichlorophenyl)amino]-5-(2-quinolinylmethoxy)benzene acetic acid 2-amino-2-(hydroxymethyl)-1,3-propanediol salt (1:1)]	–	–	–	–	–	pIC50 [2]: 5.43
CONC(=O)Cc1cc(OCc2ccc3ccccc3n2)ccc1Nc1c(Cl)cccc1Cl [Example 12]	70	-2	-41.5	-15%	-45	% Change in Edema 60 min ([5]; 10 mg/kg i.p.): -28%; % Change in Edema 10 min ([5]; 50 mg/kg p.o.): -2%; % Change in Edema 30 min ([5]; 50 mg/kg p.o.): -36%; % Change in Edema 60 min ([5]; 50 mg/kg p.o.): -22%
O=C1Cc2cc(OCc3ccc4ccccc4n3)ccc2N1c1c(Cl)cccc1Cl [Example 13]	89	10	-11	–	–	% Inhibition HP ([3]; "at 50 SM"): 12.5%
O=C(O)Cc1cc(OCc2ccc3ccccc3n2)ccc1Nc1c(Cl)cccc1Cl [Example 3, 2-[(2,6-Dichlorophenyl)amino]-5-(2-quinolinylmethoxy)benzene acetic acid sodium salt]	–	–	21.7	+12%	-10	pIC50 ([1]; acetic acid sodium salt): 7.70; pIC50 ([2]; acetic acid sodium salt): < 6.00; % Change in Edema 60 min ([5]; 10 mg/kg i.p.): +12%
COc1cccc2c1cc([N+](=O)[O-])c1c(C(=O)O)cc3c(c12)OCO3 [Aristolochic Acid, reference compound]	–	–	–	–	–	ED50 at +10 min ([5]; p.o., standard drugs): Not Active
C[C@@H]1C[C@H]2[C@@H]3CCC4=CC(=O)C=C[C@]4(C)[C@@]3(F)[C@@H](O)C[C@]2(C)[C@@]1(O)C(=O)CO [Dexamethasone, reference compound]	–	–	–	–	–	ED50 at +10 min ([5]; p.o. 3 hr, standard drug): 10 mg/kg
COC(=O)Cc1cc(OCc2nc3ccccc3n2C)ccc1Nc1c(Cl)cccc1Cl [Example 10, 2-[(2,6-Dichlorophenyl)amino]-5-[(1-methyl-1H-benzimidazol-2-yl)methoxy]benzene acetic acid methyl ester]	65	32	–	-49%	-36	% Change in Edema 10 min ([5]; 1 mg/kg i.p.): -29%; change in vivo at 1 mg/kg ([5]; 1 mg/kg i.p.): -20%
COc1ccc2cc([C@H](C)C(=O)O)ccc2c1 [Naproxen, reference compound]	–	–	–	–	–	ED50 at +10 min ([5]; p.o., standard drugs): 18 mg/kg
Luffarrellolide [reference compound]	–	–	–	–	–	ED50 at +10 min ([5]; p.o., standard drugs): Not Active
O=C(O)Cc1cc(OCc2ccc3ccccc3n2)ccc1Nc1ccccc1 [Example 16, 2-(Phenylamino)-5-(2-quinolinylmethoxy)benzene acetic acid]	90	10	-4.3	–	–	inhibition at 10 µM [3]: 14.2%
O=C1Cc2cc(OCc3ccc4ccccc4n3)ccc2N1c1ccccc1 [Example 15, 1-Phenyl-5-(2-quinolinylmethoxy)-1,3-dihydro-2H-indol-2-one]	40	-9	-24	–	–	–
O=C1Cc2cc(OCc3ccc4ccc(Cl)cc4n3)ccc2N1c1c(Cl)cccc1Cl [Example 18, 1-(2,6-Dichlorophenyl)-5-[7-chloro-2-(quinolinylmethoxy)]-1,3-dihydro-2H-indol-2-one]	–	–	5.1	–	–	inhibition at 10 µM [3]: 2.2%
COC(=O)Cc1cc(OCc2ccc3ccccc3n2)ccc1Nc1c(Cl)cccc1Cl [Example 1, 2-[(2,6-Dichlorophenyl)amino]-5-(2-quinolinylmethoxy)-benzene acetic acid methyl ester ethanedioate (1:1)]	96	4	–	-77%	-37	% Change in Edema 3 min ([5]; 1 mg/kg i.p.): -10%; % Change in Edema 10 min ([5]; 1 mg/kg i.p.): -31%; % Change in Edema 3 min ([5]; 10 mg/kg i.p.): -39%; change in vivo at 1 mg/kg ([5]; 1 mg/kg i.p.): -23%
O=C(O)Cc1cc(OCCCCOc2ccccc2)ccc1Nc1c(Cl)cccc1Cl [Example 9, 2-[(2,6-Dichlorophenyl)amino]-5-[(4-phenoxy)butoxy]benzene acetic acid]	16	38	15.7	-54%	-32	inhibition at 10 µM [1]: 100%; inhibition at 10 µM [2]: 100%; inhibition at 10 µM [3]: 2.2%; % Change in Edema 3 min ([5]; 10 mg/kg i.p.): -41%; % Change in Edema 3 min ([5]; 50 mg/kg p.o.): +37%; % Change in Edema 10 min ([5]; 50 mg/kg p.o.): -12%; % Change in Edema 30 min ([5]; 50 mg/kg p.o.): -4%
Cn1c(COc2ccc(Nc3c(Cl)cccc3Cl)c(CC(=O)O)c2)nc2ccccc21 [Example 11, acetic acid]	-6	-8	33.3	–	–	–
